Drawing on patent US9809623B2, “α4β7 peptide monomer and dimer antagonists” (Protagonist Therapeutics, Inc., priority 2014, dated 2017), this text covers half-life and IC50 for 9 molecules.

Read-outs that look alike come from different tables or passages of the source. Numbered stars: 1 amine (or outer) side, 2 acyl side, 3 side chain; on linkers, the order of the positions; unused ones are H or OH. Bridge positions count the residues as written; N and C are the ends. Square brackets hold non-standard residues; d marks the D form. Peptide text beside a SMILES is read from it. I, II: the chains in the order shown. Phe(4-tBu) = CC(C)(C)c1ccc(C[C@H](N)C(=O)O)cc1; 2Nal = N[C@@H](Cc1ccc2ccccc2c1)C(=O)O; Diglycolyl = O=C(COCC(=O)[*:2])[*:1]; NMeR = CN[C@@H](CCCNC(=N)N)C(=O)O; hPhe = N[C@@H](CCc1ccccc1)C(=O)O; Aic = NC1(C(=O)O)Cc2ccccc2C1; Pen = CC(C)(S)[C@H](N)C(=O)O; βAla = NCCC(=O)O Some results are limits rather than exact numbers.

Series [1] is described as follows: Simulated Intestinal Fluid (SIF) Stability Assay. In kind it is in vitro ADME, porcine. Particulars: pig, pH 6.5, Table 3-B, > means experiment was stopped at that time and half life was not reached, read-out: Stabilty SIF t1/2. The gist of the method: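 Intestinal stability: percent peptide remaining over time, by LC-MS/MS peak-area ratio to internal standard, fitted to first-order decay for half-life. Conditions: 22 μM peptide, 1% pancreatin in pH 6.5 blank FASSIF, 37 °C.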

The target of series [2] is T1, rh integrin α4β7 (Homo sapiens, UniProt P13612+P26010).
T1 construct: purchased R&D Systems 5397-A30
Kind of series: α4β7-MAdCAM Competition ELISA. In kind it is binding. Particulars: Table 3-B, Potency (α4β7); range classes; read-out: α4β7 ELISA IC50. The procedure:
A nickel coated plate (Pierce #15442) was coated with rh integrin α4β7 (R&D Systems #5397-A30) at 800 ng/well and incubated at room temperature with shaking for 1 hr. The solution was then removed by shaking and blocked with assay buffer (50 mM Tris-HCl pH7.6, 150 mM NaCl, 1 mM MnCl2 or MgCl2, 0.05% Tween-20 and 0.5% BSA) at 250 ul/well. The plate was then incubated at room temperature for 1 hr. Each well was washed 3 times with wash buffer (50 mM Tris-HCl pH7.6, 100 mM NaCl, 1 mM MnCl2 or MgCl2, 0.05% Tween-20). To each well was added 25 ul of a serial dilution (3-fold dilutions in assay buffer) of peptide starting at 20 μM. 25 ul of recombinant human MAdCAM-1 (R&D Systems #6056-MC) was then added to each well at a fixed concentration 20 nM. The final starting peptide concentration was 10 μM, and the final MAdCAM-1 concentration was 10 nM. The plates were then incubated at room temperature for 1 hr to reach binding equilibrium. The wells were then washed three times with wash buffer. 50 ul of mouse anti-human IgG1-HRP (Invitrogen # A10648) diluted in 1:2000 in assay buffer was then added to each well. The wells were incubated at room temperature for 45 min with shaking. The wells were then washed 3 times with wash buffer. 100 ul of 3,3′,5,5′-Tetramethylbenzidine (TMB) were then added to each well and closely observe during development time. The reaction was stopped with 2N H2SO4 and absorbance was read at 450 nm.
TMB is a chromogenic substrate suitable for use in ELISA procedures, which utilize horseradish peroxidase conjugates. This substrate produces a soluble end product that is blue in color and can be read spectrophotometrically at 370 or 655 nm. The reaction maybe stopped with 2 M H2S04, resulting in a yellow solution that is read at 450 nm. Each tablet contains 1 mg of TMB substrate. To prepare TMB Substrate Solution, dissolve one 3,3′,5,5′-tetramethylbenzidine tablet in 1 ml of DMSO and add to 9 ml of 0.05 M Phosphate-Citrate Buffer, pH 5.0. Add 2 μl of fresh 30% hydrogen peroxide (Product No. H 1009) per 10 ml of substrate buffer solution, immediately prior to use.

In series [3] the target is α4β7 (Homo sapiens, UniProt P13612+P26010). Kind of series: α4β7-MAdCAM Cell Adhesion Assay (RPMI 8866 human cells). The series is classed as cell-based. Also noted: host or cells: RPMI 8866 human B lymphoblastoid cells. Conditions: Table 3-B, Potency (α4β7); range classes; read-out: α4β7 cell (Hu) IC50. The gist of the method: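 Adhesion read-out: MTT absorbance at 570 nm minus no-cell wells, after three washes. Plates coated with rh MAdCAM-1/Fc received peptide dilutions plus 200,000 RPMI 8866 cells in Mn2+ (1 mM)-supplemented DMEM, 0.1% BSA, HEPES pH 7, incubated 30-45 min, 37 °C.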

Where [4] appears, read: simulated intestinal fluid (SIF) with 1% porcine pancreatin.
Setting [5] is: simulated intestinal fluid (SIF) with porcine pancreatin.

Sequence of α4β7 (P13612 34-1032): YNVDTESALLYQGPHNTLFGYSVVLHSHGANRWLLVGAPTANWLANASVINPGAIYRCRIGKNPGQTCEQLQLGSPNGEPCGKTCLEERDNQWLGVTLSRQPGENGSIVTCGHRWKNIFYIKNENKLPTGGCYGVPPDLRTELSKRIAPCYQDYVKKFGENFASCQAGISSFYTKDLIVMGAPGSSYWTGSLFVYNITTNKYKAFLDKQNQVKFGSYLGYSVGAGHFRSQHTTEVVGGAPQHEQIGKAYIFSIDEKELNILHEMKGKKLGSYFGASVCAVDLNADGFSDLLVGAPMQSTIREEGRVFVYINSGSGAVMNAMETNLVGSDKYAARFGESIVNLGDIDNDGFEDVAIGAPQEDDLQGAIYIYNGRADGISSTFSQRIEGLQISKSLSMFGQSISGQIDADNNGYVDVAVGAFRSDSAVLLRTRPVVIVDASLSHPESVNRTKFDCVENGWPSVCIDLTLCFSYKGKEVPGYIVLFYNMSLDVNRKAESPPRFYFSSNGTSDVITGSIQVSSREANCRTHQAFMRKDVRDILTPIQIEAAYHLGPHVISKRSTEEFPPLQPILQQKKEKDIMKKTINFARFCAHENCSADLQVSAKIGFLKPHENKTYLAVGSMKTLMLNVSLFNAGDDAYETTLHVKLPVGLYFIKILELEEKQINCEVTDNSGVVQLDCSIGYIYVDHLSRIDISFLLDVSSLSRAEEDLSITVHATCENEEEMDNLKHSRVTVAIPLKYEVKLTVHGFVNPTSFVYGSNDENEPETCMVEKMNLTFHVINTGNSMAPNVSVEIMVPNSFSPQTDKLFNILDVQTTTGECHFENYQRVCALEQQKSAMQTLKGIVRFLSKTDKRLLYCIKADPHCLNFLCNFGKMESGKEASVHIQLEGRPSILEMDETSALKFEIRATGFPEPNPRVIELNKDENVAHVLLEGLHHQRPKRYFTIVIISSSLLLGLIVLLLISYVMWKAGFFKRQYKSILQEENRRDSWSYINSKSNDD
Sequence of α4β7 (P26010 20-798): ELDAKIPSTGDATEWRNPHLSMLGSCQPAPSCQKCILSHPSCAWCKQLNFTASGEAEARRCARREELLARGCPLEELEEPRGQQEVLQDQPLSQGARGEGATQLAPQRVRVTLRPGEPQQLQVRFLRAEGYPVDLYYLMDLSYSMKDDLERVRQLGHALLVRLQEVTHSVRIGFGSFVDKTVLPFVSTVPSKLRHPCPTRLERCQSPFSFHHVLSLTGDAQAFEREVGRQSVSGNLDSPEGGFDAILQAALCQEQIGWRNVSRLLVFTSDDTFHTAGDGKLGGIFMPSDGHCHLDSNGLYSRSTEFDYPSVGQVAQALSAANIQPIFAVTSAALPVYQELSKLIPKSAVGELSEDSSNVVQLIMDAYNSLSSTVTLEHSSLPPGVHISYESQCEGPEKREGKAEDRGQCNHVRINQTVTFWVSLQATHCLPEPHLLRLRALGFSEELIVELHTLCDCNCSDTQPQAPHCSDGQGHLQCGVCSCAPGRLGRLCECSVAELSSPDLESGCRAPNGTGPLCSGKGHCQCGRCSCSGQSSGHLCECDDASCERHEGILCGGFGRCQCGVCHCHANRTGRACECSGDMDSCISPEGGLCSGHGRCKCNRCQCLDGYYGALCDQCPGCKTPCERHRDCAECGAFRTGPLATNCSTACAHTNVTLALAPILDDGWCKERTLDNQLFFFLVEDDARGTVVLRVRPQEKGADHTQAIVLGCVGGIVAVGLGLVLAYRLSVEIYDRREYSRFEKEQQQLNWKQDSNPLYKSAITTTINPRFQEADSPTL
T1 sequence (P13612 34-977 limits assumed): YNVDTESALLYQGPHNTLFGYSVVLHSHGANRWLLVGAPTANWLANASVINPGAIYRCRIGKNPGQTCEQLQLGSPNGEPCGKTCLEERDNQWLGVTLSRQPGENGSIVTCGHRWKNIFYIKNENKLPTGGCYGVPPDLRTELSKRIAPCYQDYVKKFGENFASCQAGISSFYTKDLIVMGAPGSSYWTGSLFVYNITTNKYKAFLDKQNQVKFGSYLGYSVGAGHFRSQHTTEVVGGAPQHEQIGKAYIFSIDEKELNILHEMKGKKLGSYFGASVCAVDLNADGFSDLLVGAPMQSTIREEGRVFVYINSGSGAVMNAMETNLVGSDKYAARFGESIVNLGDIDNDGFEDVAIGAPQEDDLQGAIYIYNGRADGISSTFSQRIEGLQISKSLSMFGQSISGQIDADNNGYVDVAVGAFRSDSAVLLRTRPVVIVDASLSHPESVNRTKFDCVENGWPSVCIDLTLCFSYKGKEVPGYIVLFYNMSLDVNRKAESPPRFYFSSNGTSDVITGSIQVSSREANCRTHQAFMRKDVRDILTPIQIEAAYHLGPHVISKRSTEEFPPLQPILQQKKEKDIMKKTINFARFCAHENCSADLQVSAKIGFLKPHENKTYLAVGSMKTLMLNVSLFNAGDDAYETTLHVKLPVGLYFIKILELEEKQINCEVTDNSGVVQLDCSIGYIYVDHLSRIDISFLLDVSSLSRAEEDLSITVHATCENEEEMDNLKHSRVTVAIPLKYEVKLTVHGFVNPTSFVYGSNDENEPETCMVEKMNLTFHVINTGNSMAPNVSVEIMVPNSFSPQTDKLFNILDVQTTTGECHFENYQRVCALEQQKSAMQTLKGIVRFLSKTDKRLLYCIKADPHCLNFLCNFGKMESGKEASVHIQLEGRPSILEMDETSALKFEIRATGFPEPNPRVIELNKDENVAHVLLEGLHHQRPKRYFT
T1 sequence (P26010 20-723 limits assumed): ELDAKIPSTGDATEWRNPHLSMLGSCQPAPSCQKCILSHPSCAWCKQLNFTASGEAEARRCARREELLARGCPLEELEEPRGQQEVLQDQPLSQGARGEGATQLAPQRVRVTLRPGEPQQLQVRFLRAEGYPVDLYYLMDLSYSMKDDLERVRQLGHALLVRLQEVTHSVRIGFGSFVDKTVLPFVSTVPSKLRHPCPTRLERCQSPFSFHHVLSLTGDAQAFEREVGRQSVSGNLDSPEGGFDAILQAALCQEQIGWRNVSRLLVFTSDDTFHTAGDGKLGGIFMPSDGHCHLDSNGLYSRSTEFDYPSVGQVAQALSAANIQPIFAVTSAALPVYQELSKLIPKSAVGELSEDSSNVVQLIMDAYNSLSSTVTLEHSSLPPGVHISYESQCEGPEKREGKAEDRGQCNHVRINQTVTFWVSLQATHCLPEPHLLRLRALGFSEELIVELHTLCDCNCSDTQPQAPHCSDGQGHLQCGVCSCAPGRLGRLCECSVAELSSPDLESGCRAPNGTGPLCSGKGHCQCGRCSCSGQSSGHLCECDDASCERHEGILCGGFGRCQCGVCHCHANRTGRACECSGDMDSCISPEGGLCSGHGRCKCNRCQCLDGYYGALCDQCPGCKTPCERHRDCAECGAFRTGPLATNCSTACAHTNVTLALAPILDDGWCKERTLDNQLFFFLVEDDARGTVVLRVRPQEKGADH

As for `CC(=O)N[C@@H]1C(=O)N(C)[C@@H](CCCNC(=N)N)C(=O)N[C@@H](CO)C(=O)N[C@@H](CC(=O)O)C(=O)N[C@@H]([C@@H](C)O)C(=O)N[C@@H](CC(C)C)C(=O)N[C@H](C(=O)N[C@@H](Cc2c[nH]c3ccccc23)C(=O)NC2(C(=O)N[C@H](CCCCN)C(N)=O)Cc3ccccc3C2)C(C)(C)SSC1(C)C` [compound 51] (Ac-[Pen][NMeR]SDTL[Pen]W[Aic][dK]-NH2; disulfide 1-7), the half-life at 22 μM in series [1] (setting [4]) is 180 min. In addition, the 50% inhibitory concentration (IC50) in series [2] fell in the range of 25 to 50 nM.

With `CC(=O)N[C@@H]1C(=O)N(C)[C@@H](CCCNC(=N)N)C(=O)N[C@@H](CO)C(=O)N[C@@H](CC(=O)O)C(=O)N[C@@H]([C@@H](C)O)C(=O)N[C@@H](CC(C)C)C(=O)N[C@H](C(=O)N[C@@H](Cc2ccc3ccccc3c2)C(=O)N[C@H](CCC(=O)O)C(=O)N[C@H](CCCCNC(=O)COCC(=O)NCCCC[C@@H](NC(=O)[C@@H](CCC(=O)O)NC(=O)[C@H](Cc2ccc3ccccc3c2)NC(=O)[C@H]2NC(=O)[C@H](CC(C)C)NC(=O)[C@H]([C@@H](C)O)NC(=O)[C@H](CC(=O)O)NC(=O)[C@H](CO)NC(=O)[C@H](CCCNC(=N)N)N(C)C(=O)[C@@H](NC(C)=O)C(C)(C)SSC2(C)C)C(N)=O)C(N)=O)C(C)(C)SSC1(C)C` [compound 29] (I: Ac-[Pen][NMeR]SDTL[Pen][2Nal][dE][dK]-NH2 / II: Ac-[Pen][NMeR]SDTL[Pen][2Nal][dE][dK]-NH2; disulfide I:1-I:7, II:1-II:7; linker I:10-II:10 via Diglycolyl), in series [1] (setting [4]), the half-life at 22 μM was greater than 180 min. The values for the IC50 in series [2] and in series [3] were less than 10 nM and 10 to 25 nM, respectively.

For the molecule `CC(=O)N[C@@H]1C(=O)N(C)[C@@H](CCCNC(=N)N)C(=O)N[C@@H](CO)C(=O)N[C@@H](CC(=O)O)C(=O)N[C@@H]([C@@H](C)O)C(=O)N[C@@H](CC(C)C)C(=O)N[C@H](C(=O)N[C@@H](Cc2ccc3ccccc3c2)C(=O)N[C@@H](CCc2ccccc2)C(=O)N[C@H](CCCCN)C(N)=O)C(C)(C)SSC1(C)C` [compound 50] (Ac-[Pen][NMeR]SDTL[Pen][2Nal][hPhe][dK]-NH2; disulfide 1-7), in series [1] (setting [4]), the half-life at 22 μM was 104 min. In addition, in series [2], the 50% inhibitory concentration (IC50) lay in the range of 10 to 25 nM.

For `CC(=O)N[C@@H]1C(=O)N(C)[C@@H](CCCNC(=N)N)C(=O)N[C@@H](CO)C(=O)N[C@@H](CC(=O)O)C(=O)N[C@@H]([C@@H](C)O)C(=O)N[C@@H](CC(C)C)C(=O)N[C@H](C(=O)N[C@@H](Cc2c[nH]c3ccccc23)C(=O)N[C@@H](CCC(=O)O)C(=O)N2CCC[C@H]2C(=O)N[C@H](CCCCN)C(N)=O)C(C)(C)SSC1(C)C` [compound 49] (Ac-[Pen][NMeR]SDTL[Pen]WEP[dK]-NH2; disulfide 1-7), in series [1] (setting [4]), the half-life at 22 μM was greater than 180 min. Besides, the IC50 in series [2] was 10 to 25 nM.

Consider `CC(C)C[C@@H]1NC(=O)[C@H]([C@@H](C)O)NC(=O)[C@H](CC(=O)O)NC(=O)[C@H](CO)NC(=O)[C@H](CCCNC(=N)N)N(C)C(=O)[C@@H](NC(=O)CCN)C(C)(C)SSC(C)(C)[C@@H](C(=O)N[C@@H](Cc2c[nH]c3ccccc23)C(=O)N[C@H](CCC(=O)O)C(N)=O)NC1=O` [compound 53] (H-[βAla][Pen][NMeR]SDTL[Pen]W[dE]-NH2; disulfide 2-8), for which, in series [1] (setting [5]), the half-life at 22 μM was greater than 180 min. In addition, the concentration for half-maximal inhibition (IC50) in series [2] was 10 to 25 nM.

As to `CC(C)C[C@@H]1NC(=O)[C@H]([C@@H](C)O)NC(=O)[C@H](CC(=O)O)NC(=O)[C@H](CO)NC(=O)[C@H](CCCNC(=N)N)N(C)C(=O)[C@@H](NC(=O)CCN)C(C)(C)SSC(C)(C)[C@@H](C(=O)N[C@@H](Cc2c[nH]c3ccccc23)C(=O)N[C@@H](CCC(=O)O)C(N)=O)NC1=O` [compound 52] (H-[βAla][Pen][NMeR]SDTL[Pen]WE-NH2; disulfide 2-8), the half-life at 22 μM in series [1] (setting [5]) is 117 min. The values for the half-maximal inhibitory concentration (IC50) in series [2] and in series [3] were 10 to 25 nM and 100 to 500 nM, respectively.

Turning to `CC(=O)N[C@@H]1C(=O)N(C)[C@@H](CCCNC(=N)N)C(=O)N[C@H](CC(=O)O)C(=O)N[C@@H](CC(=O)O)C(=O)N[C@@H]([C@@H](C)O)C(=O)N[C@@H](CC(C)C)C(=O)N[C@H](C(=O)N[C@@H](Cc2c[nH]c3ccccc23)C(=O)N[C@@H](CCC(=O)O)C(=O)N[C@H](CCCCN)C(N)=O)C(C)(C)SSC1(C)C` [compound 48] (Ac-[Pen][NMeR][dD]DTL[Pen]WE[dK]-NH2; disulfide 1-7), the half-life at 22 μM in series [1] (setting [4]) was greater than 180 min. For the same molecule, the half-inhibitory concentration (IC50) in series [2] is 1000 to 10000 nM.

Regarding `CC(=O)N[C@@H]1C(=O)N(C)[C@@H](CCCNC(=N)N)C(=O)N[C@@H](CO)C(=O)N[C@@H](CC(=O)O)C(=O)N[C@@H]([C@@H](C)O)C(=O)N[C@@H](CC(C)C)C(=O)N[C@H](C(=O)N[C@@H](Cc2ccc(C(C)(C)C)cc2)C(=O)O)C(C)(C)SSC1(C)C` [compound 151] (Ac-[Pen][NMeR]SDTL[Pen][Phe(4-tBu)]-OH; disulfide 1-7), the half-life at 22 μM in series [1] (setting [4]) was 187 min. For the same molecule, the half-inhibitory concentration (IC50) was 10 to 25 nM in series [2] and 50 to 100 nM in series [3].

In the case of `CC(=O)N[C@@H]1C(=O)N(C)[C@@H](CCCNC(=N)N)C(=O)N[C@@H](CO)C(=O)N[C@@H](CC(=O)O)C(=O)N[C@@H](CC(=O)O)C(=O)N[C@@H](CC(C)C)C(=O)N[C@H](C(=O)N[C@@H](Cc2c[nH]c3ccccc23)C(=O)N[C@@H](CCC(=O)O)C(=O)N[C@H](CCCCN)C(N)=O)C(C)(C)SSC1(C)C` [compound 46] (Ac-[Pen][NMeR]SDDL[Pen]WE[dK]-NH2; disulfide 1-7), the half-life at 22 μM in series [1] (setting [4]) was greater than 180 min. Moreover, the IC50 in series [2] fell in the range of 1000 to 10000 nM.
